Literature values, collected in US10729778B2, “Carrier-linked treprostinil prodrugs” (Ascendis Pharma A/S, priority 2011, dated 2020).

Conditions: background statement

half-life: 4 h
SMILES: CCCCC[C@H](O)CC[C@@H]1[C@H]2Cc3cccc(OCC(=O)O)c3C[C@H]2C[C@H]1O [Treprostinil]
